# Assay results as given in article PMC11178805, “Ligand-based design of [^18F]OXD-2314 for PET imaging in non-Alzheimer’s disease tauopathies” (Nature Communications, 2024).
# Tests used:
# [1] = target: T1, norepinephrine transporter(h) (Homo sapiens, UniProt P23975); experiment: In vitro pharmacology binding screen (Eurofins): norepinephrine transporter; conditions: read-out: inhibition of antagonist radioligand (protriptyline) binding to norepinephrine transporter(h)
# T1 construct: purchased Eurofins, France (contract screening)
# Experimental: (§1) OXD-2314 binding to CNS receptors was calculated as a percentage of inhibition of a receptor-specific radioligand. Enzyme inhibition was calculated as the percent inhibition of baseline enzyme activity where inhibition above 50% was considered significant. […] Norepinephrine transports are expressed in low concentration throughout the brain and its relative concentration are not affected by aging or neurodegeneration. 5-lipoxygenase may be overexpressed in aging brain and play some role in neurodegeneration, which could be necessary to further investigate in vivo[42]. Off-target binding to monoamine oxidase A and B (MAO-A and MAO-B) has been seen with some tau PET radiotracers[43],[44].
# aggregated Aβ = target: T2, aggregated Aβ (Homo sapiens, UniProt P05067); experiment: Competition binding vs [^3H]PiB in AD tissue homogenates; conditions: n = 3
# T2 construct: tissue Neurodegenerative Disease Brain Bank at UCSF; host or cells: human AD brain, middle frontal gyrus, pooled homogenate
# Experimental: Fresh frozen, autopsy-confirmed human PD anterior cingulate cortex brain tissue blocks (1 cm^3) were obtained from Dr. Thomas Beach at Banner/Sun Health AZ with funding from the Michael J. Fox Foundation and contained frequent α-synuclein aggregates and no other detectable aggregated amyloid species. The frozen tissue blocks were prepared for the binding assays as previously described[47],[48], except that equal quantities of the homogenates of three AD brains (AD1-AD3, Table S1) were pooled, as were homogenates from three PSP brains (PSP1-PSP3), three CBD brains (CBD1-CBD3), three Pick’s brains (PiD1-PiD3), and 4 PD brains (PD1-PD4) in order to help minimize the inter-subject variability within the different neuropathological groups. Individual subcortical brain tissues from a PSP subject (PSP4) and a CBD subject (CBD4), as well as with the middle frontal cortex of a control subject, were prepared for the binding assays as previously described[47],[48].
# The equilibrium inhibition constant (Ki) values of the unlabeled compounds were determined versus tritium-labeled radioligands using published methods.
# MAO-B = target: T3, MAO-B (Homo sapiens, UniProt P27338); experiment: In vitro pharmacology screen (Eurofins): MAO-B; conditions: read-out: inhibition of MAO-B binding
# T3 construct: purchased Eurofins, France (contract screening)
# T3 sequence (P27338 1-520): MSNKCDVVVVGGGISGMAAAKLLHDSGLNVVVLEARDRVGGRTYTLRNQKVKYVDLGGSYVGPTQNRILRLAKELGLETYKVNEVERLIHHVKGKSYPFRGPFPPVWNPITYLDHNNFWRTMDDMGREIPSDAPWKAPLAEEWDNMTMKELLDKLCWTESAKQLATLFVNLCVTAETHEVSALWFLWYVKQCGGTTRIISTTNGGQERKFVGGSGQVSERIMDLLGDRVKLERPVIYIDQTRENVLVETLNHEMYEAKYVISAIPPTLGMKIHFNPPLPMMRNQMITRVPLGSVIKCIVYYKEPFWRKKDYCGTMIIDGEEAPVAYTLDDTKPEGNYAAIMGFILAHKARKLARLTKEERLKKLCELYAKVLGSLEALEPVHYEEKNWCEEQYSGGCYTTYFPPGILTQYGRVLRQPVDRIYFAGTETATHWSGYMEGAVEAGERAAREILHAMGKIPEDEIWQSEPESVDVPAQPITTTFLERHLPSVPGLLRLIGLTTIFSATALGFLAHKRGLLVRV
# Experimental: as §1
# [2] = Whole-body PET-CT biodistribution and dose estimation in rats; assay type: in vivo
# From the text: Six rats (3 male, 19.9 ± 6.2 MBq; and 3 female, 20.8 ± 3.2 MBq) were imaged using PET-CT for whole-body biodistribution of radioactivity and dose estimation using standard mass and density of the organs for adult male and female subjects, respectively (Figure S17). […] The estimated whole-body effective dose was 21.3 ± 3.1 and 22.5 ± 0.9 µSv/MBq for adult male and female models, respectively, with the highest absorbed dose of 50.6 ± 16.9 µGy/MBq in the large intestine.
# A total of 8 healthy adult rats (Sprague-Dawley, 384 ± 56 g; 4/4 M/F) underwent PET imaging following bolus injection of [^18F]OXD-2314 (20.5 ± 4.1 MBq), with two animals (M/F) scanned for 120 min with the head in the centre of PET field-of-view (FOV) whereas six animals (3/3 M/F) scanned for 180 min at three bed positions (head-to-bottom) with 15 frames (2×15 s, 2×30 s, 2×60 s, 1×120 s, 1×180 s, 2×240 s, 2×300 s, and 3×600 s) to cover the whole body. PET images were acquired using a nanoScan™ PET/CT scanner (Mediso, Budapest, Hungary) with rats anesthetized under isoflurane in O2 (1.5–2%, 1 L/min) throughout the imaging session and monitored closely for body temperature and respiration rate. A scout CT was acquired for PET FOV positioning, then a material map CT image was acquired for PET corrections of attenuation and scatter and for PET/CT co-registration to define anatomic brain regions of interest. For the brain scans, aacquired list-mode data were sorted into thirty-nine three-dimensional (3D) (3×5 s, 3×15 s, 3×20 s, 7×60 s, 17×180 s, and 6×600 s), true sinograms (ring difference 84). The 3D sinograms were converted in 2D sinograms using Fourier rebinning with corrections for detector geometry, efficiencies, attenuation, and scatter before image reconstruction using 2D filtered back projection with a Hann filter at a cut-off of 0.50 cm^−1. The analytical reconstruction was also used for dose assessment of the multi-frame whole-body images. All data were corrected for dead time and were decay-corrected to the start of acquisition. Iteratively reconstructed images with the manufacturer’s proprietary 3D algorithm (6 subsets, 4 iterations) were used for PET and CT co-registration, for co-registration of subject’s CT with a stereotactic MR atlas of brain[51], for organ region-of-interest (ROI) placement, and for presentation in figures. Filtered back projection images were used to extract regional brain and organ time-activity curves (TACs) with VivoQuant® 2020 software (Invicro, Needham, MA, USA) and Amide (1.0.4)[52]. The selected organs (a total of 12) include brain, lungs, heart wall, heart content, liver, stomach content, spleen, kidneys, small intestine content, upper large intestine content, lower large intestine content, and urinary bladder content. Normalized cumulated activities of each organ were calculated using trapezoidal integration of the area under the TACs plus extrapolation of the TAC to infinity with natural decay of the radiotracer. Dose assessment was performed with OLINDA/EXM 1.1 to calculate the effective dose and the effective dose equivalent. SUV were calculated by normalizing regional radioactivity for injected radioactivity and body weight.
# T2 sequence (P05067 672-713 limits assumed): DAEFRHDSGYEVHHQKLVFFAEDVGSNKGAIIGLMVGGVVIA
# T1 sequence (P23975 whole entry): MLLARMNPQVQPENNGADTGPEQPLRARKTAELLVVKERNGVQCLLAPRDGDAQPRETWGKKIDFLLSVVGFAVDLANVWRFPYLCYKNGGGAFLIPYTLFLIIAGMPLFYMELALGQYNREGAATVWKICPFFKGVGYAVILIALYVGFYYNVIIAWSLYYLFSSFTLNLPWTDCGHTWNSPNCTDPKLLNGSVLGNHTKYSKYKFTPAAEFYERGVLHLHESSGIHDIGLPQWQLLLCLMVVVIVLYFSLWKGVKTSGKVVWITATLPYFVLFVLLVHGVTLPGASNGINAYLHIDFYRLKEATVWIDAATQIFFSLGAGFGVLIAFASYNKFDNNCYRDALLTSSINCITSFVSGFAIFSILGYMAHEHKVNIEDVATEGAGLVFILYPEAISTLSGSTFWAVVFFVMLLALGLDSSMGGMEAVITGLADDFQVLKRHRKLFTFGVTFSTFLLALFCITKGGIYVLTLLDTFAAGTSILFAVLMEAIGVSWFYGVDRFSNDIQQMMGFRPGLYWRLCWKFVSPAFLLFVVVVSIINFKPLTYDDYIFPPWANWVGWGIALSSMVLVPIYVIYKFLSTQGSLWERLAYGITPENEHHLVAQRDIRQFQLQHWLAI
inhibition at 10 µM [1],Ki (aggregated Aβ),inhibition at 10 µM (MAO-B),SMILES,"estimated whole-body effective dose ([2]; adult female model, from rat data)","estimated whole-body effective dose ([2]; adult male model, from rat data)","highest absorbed dose, large intestine ([2]; from rat data)","uptake of radioactivity (normalized cumulated activity), large intestines ([2]; rats, n = 6)","uptake of radioactivity (normalized cumulated activity), liver ([2]; rats, n = 6)","uptake of radioactivity (normalized cumulated activity), small intestine ([2]; rats, n = 6)"
62.9%,161 ± 34 nM,37%,"COC1CCCN(c2ccc(-c3cc4cc(O)ccc4[nH]3)c(F)n2)C1 (stereo not drawn) [OXD-2314, 2-(2-fluoro-6-(3-methoxypiperidin-1-yl)pyridin-3-yl)-1H-indol-5-ol]",–,–,–,–,–,–
–,–,–,CO[C@H]1CCCN(c2ccc(-c3cc4cc(O)ccc4[nH]3)c([18F])n2)C1 [[^18F]OXD-2314],22.5 ± 0.9 µSv/MBq,21.3 ± 3.1 µSv/MBq,50.6 ± 16.9 µGy/MBq,0.067 ± 0.032 MBqOrgan⋅hr/MBqInjected,0.147 ± 0.023 MBqOrgan⋅hr/MBqInjected,0.075 ± 0.019 MBqOrgan⋅hr/MBqInjected
